Test results reported in patent US8388939B2, “Moisturizing cosmetic composition comprising a combination of homarine and erythritol” (Sederma, S.A.S., priority 2008, dated 2013).

Test system: Human keratinocytes
Assay: Synergistic osmo-protective activity of homarine and erythritol after NaCl hyper-osmotic stress; UPTIBLUE cell count
Format: cell-based
Procedure: Human kerotinocytes were cultured for 24 h in a culture medium (DMEMc+FCS) than incubated until confluence was obtained. At this stage, the cells were putted in pre-contact with the compounds for 24 h. The day after, a 5h NaCl stress in the presence of the compounds was applied to the cells in the DMEMc medium (without FCS, with BSA) containing 150 mM of NaCl. After this stress, cells were rinced and were recovered with or without the compounds to be tested in the same medium as before (T0). Recovery was estimated at long term by measuring the survival at T5 days and at T7 days after the beginning of the stress (T0). The compounds were tested at the following concentrations: erythritol 0.6%, homarine 0.006% (corresponding to 1×) and homarine 0.06% (corresponding to 10×).
The UPTIBLUE technic was used to visualize and quantify the cell number after the hyper-osmotic shock and the osmo-protective effect of the compound was thus evaluated.

Compound	Osmo-protective effect with regards a hyper-osmotic stress, in words (5 and 7 days after hyper-osmotic shock)	% of change in cell count versus control (post-stress) (T0, homarine 0.006% (1x), erythritol 0.6% where combined)	% of change in cell count versus control (post-stress) (T0, homarine 0.06% (10x), erythritol 0.6% where combined)	% of change in cell count versus control (post-stress) (T5 days, homarine 0.006% (1x), erythritol 0.6% where combined)	% of change in cell count versus control (post-stress) (T5 days, homarine 0.06% (10x), erythritol 0.6% where combined)	% of change in cell count versus control (post-stress) (T7 days, homarine 0.006% (1x), erythritol 0.6% where combined)	% of change in cell count versus control (post-stress) (T7 days, homarine 0.06% (10x), erythritol 0.6% where combined)	% of change in cell count versus control (post-stress) (T0, erythritol 0.6% alone) [%]	% of change in cell count versus control (post-stress) (T5 days, erythritol 0.6% alone)	% of change in cell count versus control (post-stress) (T7 days, erythritol 0.6% alone)
C[n+]1ccccc1C(=O)[O-] [Homarine]	dose dependant	+10%	+14%	+33%	+93%	+26%	+130%	–	–	–
OC[C@@H](O)[C@@H](O)CO [Erythritol]	–	–	–	–	–	–	–	−8	+39%	+62%
